Earlier results as cited in PMC5408581, “Using X-ray Crystallography, Biophysics, and Functional Assays to Determine the Mechanisms Governing T-cell Receptor Recognition of Cancer Antigens” (Journal of Visualized Experiments : JoVE, 2017).
Like-named read-outs stand apart in the source and are kept apart here.

Columns and labels:
[1] = biological target: PMEL17 TCR (TRAV21 TRBV7-3); set-up: method as in PMID 26917722; conditions: SPR, CM5 chip, 25 °C, table reprinted
[2] = biological target: gp100 TCR (TRAV17 TRBV19); set-up: method as in PMID 26917722; conditions: SPR, CM5 chip, 25 °C, table reprinted; for Kd: read-out: gp100 TCR TRAV17 TRBV19 Affinity KD
[3] = peptide refolded with biotin-tagged HLA-A*0201/β2m and coupled via streptavidin (~500-600 RU), ten serial dilutions of soluble TCR, 30 µL/min, equilibrium KD by nonlinear fit

For “YLAPGPVTA [YLE-3A, with HLA-A*0201 called A2-YLE-3A]”, the “PMEL17 TCR TRAV21 TRBV7-3 Affinity KD” value [1, 3] is listed as “No binding” and the “gp100 TCR TRAV17 TRBV19 Affinity KD” value [2, 3] is listed as “No binding”.
For “YLEPGPVTA [presented by HLA-A*0201 it is called A2-YLE]”, the Kd [2, 3] is given as 0.0265 ± 0.0023 mM.
For “YLEPAPVTA [YLE-5A, with HLA-A*0201 called A2-YLE-5A]”, the Kd ([1]; read-out: PMEL17 TCR TRAV21 TRBV7-3 Affinity KD, peptide-HLA-A*0201 coupled via streptavidin, soluble TCR injected, bound given in mM) is given as greater than 1 mM and the Kd ([2]; peptide-HLA-A*0201 coupled via streptavidin, soluble TCR injected, bound given in mM) is given as greater than 1 mM.
For “YLEPGPVTV [YLE-9V, with HLA-A*0201 called A2-YLE-9V]”, the Kd [2, 3] is listed as 0.0219 ± 0.0024 mM.
